# Assays:
# Format in all cases: in vivo
# [1] = system: smallflower flatsedge (Cyperus difformis); experiment: Test C flooded paddy test; settings: for Flatsedge plant response rating: Flooded Paddy, scale 0 to 100, 0 no effect, 100 complete control; for Plant response rating, Flatsedge: flooded paddy test, scale 0 to 100 (0 no effect, 100 complete control)
# Method in brief: (§1)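 2-leaf-stage plants, flooded paddy; treated; greenhouse 12–14 days; compared with controls by eye; rated 0–100 (0 none, 100 complete control).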
# [2] = system: barnyardgrass (Echinochloa crus-galli); experiment: Test C flooded paddy test; settings: for Barnyardgrass plant response rating: Flooded Paddy, scale 0 to 100, 0 no effect, 100 complete control; for Plant response rating, Barnyardgrass: flooded paddy test, scale 0 to 100 (0 no effect, 100 complete control)
# Method in brief: as §1
# [3] = system: duck salad (Heteranthera limosa); experiment: Test C flooded paddy test; settings: for Ducksalad plant response rating: Flooded Paddy, scale 0 to 100, 0 no effect, 100 complete control; for Plant response rating, Ducksalad: flooded paddy test, scale 0 to 100 (0 no effect, 100 complete control)
# Method in brief: as §1
# [4] = system: cocklebur (Xanthium strumarium); experiment: Test C preemergence
# Method in brief: (§2)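 Each compound was dissolved in a non-phytotoxic solvent system containing a surfactant and sprayed either on freshly planted seeds (preemergence) or on young plants, 2 to 18 cm high (postemergence). Ratings after 12 to 14 greenhouse days ran from 0, no effect, to 100, complete control.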
# [5] = system: crabgrass (Digitaria sanguinalis); experiment: Test C preemergence
# Method in brief: as §2
# [6] = system: johnsongrass (Sorghum halepense); experiment: Test C preemergence
# Method in brief: as §2
# soybean (Glycine max) = experiment: Test C preemergence
# Method in brief: as §2
# [7] = system: common ragweed (Ambrosia elatior); experiment: Test C preemergence
# Method in brief: as §2
# [8] = system: Surinam grass (Brachiaria decumbens); experiment: Test C preemergence
# Method in brief: as §2
# [9] = system: lambsquarters (Chenopodium album); experiment: Test C preemergence
# Method in brief: as §2
# [10] = system: bermudagrass (Cynodon dactylon); experiment: Test C preemergence
# Method in brief: as §2
# Sunflower = experiment: Test C preemergence; settings: Rate 62 g/ha; scale 0 to 100, 0 no effect, 100 complete control
# [11] = system: velvetleaf (Abutilon theophrasti); experiment: Test C preemergence
# Method in brief: as §2
# [12] = system: pigweed (Amaranthus retroflexus); experiment: Test C preemergence
# Method in brief: as §2
# kochia (Kochia scoparia) = experiment: Test C preemergence
# Method in brief: as §2
# [13] = system: yellow nutsedge (Cyperus esculentus); experiment: Test C preemergence
# Method in brief: as §2
# Nightshade = experiment: Test C preemergence
# corn (Zea mays) = experiment: Test C preemergence
# Method in brief: as §2
# [14] = system: woolly cupgrass (Eriochloa villosa); experiment: Test C preemergence
# Method in brief: as §2
# [15] = system: giant foxtail (Setaria faberii); experiment: Test C preemergence
# Method in brief: as §2
# [16] = system: morningglory (Ipomoea hederacea); experiment: Test C preemergence
# Method in brief: as §2
# [17] = system: goosegrass (Eleusine indica); experiment: Test C preemergence
# Method in brief: as §2
# [18] = Rate 62 g/ha, scale 0 to 100, 0 no effect, 100 complete control
# [19] = preemergence, Rate 31 g/ha, scale 0 to 100
# [20] = preemergence, Rate 250 g/ha, visual evaluation after 12 to 14 days
# [21] = preemergence, Rate 125 g/ha, scale 0 to 100, 0 no effect, 100 complete control
smiles,measurement,setting,value
CC(C)(C)c1ccn(C2CCN(c3ccc(Cl)c(Cl)c3)C2=O)n1 (stereo not drawn) [Compound 34],Flatsedge plant response rating,[1]; Rate 250 g/ha,90
same,Flatsedge plant response rating,[1]; Rate 500 g/ha,100
same,"Plant response rating, Flatsedge",[1]; Rate 62 g/ha,70
same,"Plant response rating, Flatsedge",[1]; Rate 125 g/ha,90
same,Barnyardgrass plant response rating,[2]; Rate 250 g/ha,80
same,Barnyardgrass plant response rating,[2]; Rate 500 g/ha,80
same,"Plant response rating, Barnyardgrass",[2]; Rate 62 g/ha,0
same,"Plant response rating, Barnyardgrass",[2]; Rate 125 g/ha,40
same,Ducksalad plant response rating,[3]; Rate 250 g/ha,70
same,Ducksalad plant response rating,[3]; Rate 500 g/ha,100
same,"Plant response rating, Ducksalad",[3]; Rate 62 g/ha,20
same,"Plant response rating, Ducksalad",[3]; Rate 125 g/ha,50
same,"Plant response rating, Cocklebur",[4]; [18],0
same,"Plant response rating, Cocklebur",[4]; [19],0
same,"Plant response rating (0 to 100), Cocklebur",[4]; [20],0
same,"Plant response rating, Cocklebur",[4]; [21],0
same,"Plant response rating, Crabgrass",[5]; [18],60
same,"Plant response rating, Crabgrass",[5]; [19],0
same,"Plant response rating (0 to 100), Crabgrass",[5]; [20],100
same,"Plant response rating, Crabgrass",[5]; [21],70
same,"Plant response rating, Johnsongrass",[6]; [18],0
same,"Plant response rating, Johnsongrass",[6]; [19],0
same,"Plant response rating (0 to 100), Johnsongrass",[6]; [20],0
same,"Plant response rating, Johnsongrass",[6]; [21],0
same,"Plant response rating, Soybean",soybean (Glycine max); [18],0
same,"Plant response rating, Soybean",soybean (Glycine max); [19],0
same,"Plant response rating (0 to 100), Soybean",soybean (Glycine max); [20],0
same,"Plant response rating, Soybean",soybean (Glycine max); [21],0
same,"Plant response rating, Ragweed, Common",[7]; [18],0
same,"Plant response rating, Ragweed, Common",[7]; [19],0
same,"Plant response rating (0 to 100), Ragweed, Common",[7]; [20],0
same,"Plant response rating, Ragweed, Common",[7]; [21],0
same,"Plant response rating, Surinam grass",[8]; [18],0
same,"Plant response rating, Surinam grass",[8]; [19],0
same,"Plant response rating (0 to 100), Surinam grass",[8]; [20],0
same,"Plant response rating, Surinam grass",[8]; [21],0
same,"Plant response rating, Lambsquarters",[9]; [18],90
same,"Plant response rating, Lambsquarters",[9]; [19],90
same,"Plant response rating (0 to 100), Lambsquarters",[9]; [20],100
same,"Plant response rating, Lambsquarters",[9]; [21],100
same,"Plant response rating, Bermudagrass",[10]; [18],80
same,"Plant response rating, Bermudagrass",[10]; [19],0
same,"Plant response rating (0 to 100 where 0 is no effect and 100 is complete control), Bermudagrass",[10]; [20],100
same,"Plant response rating, Bermudagrass",[10]; [21],90
same,"Plant response rating, Sunflower",Sunflower,0
same,"Plant response rating, Velvetleaf",[11]; [18],0
same,"Plant response rating, Velvetleaf",[11]; [19],0
same,"Plant response rating (0 to 100), Velvetleaf",[11]; [20],0
same,"Plant response rating, Velvetleaf",[11]; [21],0
same,"Plant response rating, Pigweed",[12]; [18],100
same,"Plant response rating, Pigweed",[12]; [19],0
same,"Plant response rating (0 to 100), Pigweed",[12]; [20],40
same,"Plant response rating, Pigweed",[12]; [21],100
same,"Plant response rating, Kochia",kochia (Kochia scoparia); [18],100
same,"Plant response rating, Kochia",kochia (Kochia scoparia); [19],100
same,"Plant response rating (0 to 100), Kochia",kochia (Kochia scoparia); [20],100
same,"Plant response rating, Kochia",kochia (Kochia scoparia); [21],100
same,"Plant response rating, Nutsedge",[13]; [18],0
same,"Plant response rating, Nutsedge",[13]; [19],0
same,"Plant response rating (0 to 100), Nutsedge",[13]; [20],0
same,"Plant response rating, Nutsedge",[13]; [21],0
same,"Plant response rating, Nightshade","Nightshade; Rate 31 g/ha, scale 0 to 100",0
same,"Plant response rating, Nightshade",Nightshade; [18],0
same,"Plant response rating, Nightshade","Nightshade; Rate 125 g/ha, scale 0 to 100, 0 no effect, 100 complete control",0
same,"Plant response rating, Corn",corn (Zea mays); [18],0
same,"Plant response rating, Corn",corn (Zea mays); [19],0
same,"Plant response rating (0 to 100), Corn",corn (Zea mays); [20],0
same,"Plant response rating, Corn",corn (Zea mays); [21],0
same,"Plant response rating, Cupgrass, Woolly",[14]; [18],20
same,"Plant response rating, Cupgrass, Woolly",[14]; [19],0
same,"Plant response rating (0 to 100), Cupgrass, Woolly",[14]; [20],80
same,"Plant response rating, Cupgrass, Woolly",[14]; [21],20
same,"Plant response rating, Foxtail, Giant",[15]; [18],30
same,"Plant response rating, Foxtail, Giant",[15]; [19],30
same,"Plant response rating (0 to 100), Foxtail, Giant",[15]; [20],50
same,"Plant response rating, Foxtail, Giant",[15]; [21],0
same,"Plant response rating, Morningglory",[16]; [18],0
same,"Plant response rating, Morningglory",[16]; [19],0
same,"Plant response rating (0 to 100), Morningglory",[16]; [20],0
same,"Plant response rating, Morningglory",[16]; [21],0
same,"Plant response rating, Goosegrass",[17]; [18],80
same,"Plant response rating, Goosegrass",[17]; [19],20
same,"Plant response rating (0 to 100), Goosegrass",[17]; [20],100
same,"Plant response rating, Goosegrass",[17]; [21],80

# — patent US7138361B2, “Herbicidal heterocycles” (E. I. du Pont de Nemours and Company, priority 2000, dated 2006)
